# Assays:
# Format in all cases: physicochemical
# [1] = Behaviour under mechanical strain (mortar grinding, jet-milling); conditions: for effect of jet-milling on the crystalline form: DSC / XRPD
# Protocol: Crystal Form A is of particular interest because of its behaviour under mechanical strain. The effect of 30 seconds of mortar grinding was evaluated. […] The behaviour of amorphous phase present in ground form A was also studied. No recrystallization of the amorphous phase was detected through sorption/desorption of water at 25° C. Nevertheless, maturation of ground samples in pure water for 6 days at room temperature led to partial recrystallization of the amorphous phase into form A.
# A particle size close to 5 μm could be reached. The DSC analyses indicate that there is no modification of the crystalline structure before and after jet-milling of Form A.
# A particle size close to 5 μm could be reached.
# [2] = Thermo-Gravimetric Analysis (TGA)
# Protocol: Analyses are carried out on a T.A. instruments TGAQ500 analyzer. Mass calibration is performed with 10 and 100 mg certified masses and the instrument is temperature-calibrated with alumel and nickel standards (Curie points of respectively 154° C. and 354° C.). Samples are exposed to a constant nitrogen stream of 60 mL/min and temperature ranges from 20° C. to 250° C. at a 5° C./min rate. The quantity of product lies between 2 and 5 mg. The powder is deposited in an open aluminum sample pan, which is itself placed in a platinum pan.
# [3] = Physical stability of the crystal form on heating, humidity and storage (XRPD); conditions: for temperature of transformation into another crystal form: A into B, D into E, E into B, G desolvates into D; for desolvation behaviour: slight heating / upon heating
# Protocol: High-resolution diagrams are recorded at ambient conditions on a PANalytical X'Pert Pro MPD powder diffractometer using the Bragg-Brentano (vertical 0-20 configuration) parafocusing geometry coupled with a X'Celerator detector. A sealed copper anode X-ray tube is used, running at 45 kV and 40 mA levels. An incident beam monochromator (Johansson type: a symmetrically cut curved germanium (111) crystal) produces pure Cu Kα1 radiation (λ[…]=1.54060 Å). A thin layer of the product is deposited on a single-crystal silicon wafer, cut out according to Si (510) crystallographic orientation that, by systematic extinction, impedes any Bragg reflection. In order to bring more crystallites into the diffraction position and thus reduce the influence of particle statistics on the measurements, a sample spinner is used. The spinner rotation speed is set at 1 revolution per second. The angular range extends from 2 to 50° in 2θ, with a 0.02° step size in 2θ. A variable counting time from 100 to 2500 seconds per step was used.
# XRPD analyses are carried out on a Siemens-Bruker D5000 Matic powder diffractometer using the Bragg-Brentano (vertical θ-2θ configuration) parafocusing geometry. A thin layer of the product is deposited on a single-crystalline silicon wafer, cut out according to Si(510) crystallographic orientation that, by systematic extinction, impedes any Bragg reflection. A sealed cobalt anode X-ray tube running at 40 kV and 30 mA levels is used. Two lines are typically emitted: CoKα1 (λ=1.7890 Å) and CoKα2 (λ=1.7929 Å). […] The primary beam passes through a parallel plate collimator (0.2 mm Soller slits), then through a divergence slit (0.2 mm). A Braun 50 M multicanal linear detector completes the setup. It has a 10°-wide detection window in angle 2θ.
# [4] = Water-Activity Isotherm (DVS), water sorption/desorption at 25° C.
# Protocol: All experiments are performed on a DVS-1 automated gravimetric vapor sorption analyser (Surface Measurement Systems Ltd., London, UK). The DVS-1 measures the uptake and loss of vapor gravimetrically using a Cahn D200 recording ultra-microbalance with a mass resolution of ±0.1 μg. A controlled relative humidity is generated by mixing different proportions of dry and water saturated carrier gas streams (monitored by mass flow controllers). The temperature is maintained constant, ±0.1° C., by enclosing the entire system in a temperature-controlled incubator. A sample size between 4 and 10 mg is used. Prior to being exposed to any water vapor the samples are dried at 0% RH to remove any surface water present and establish a dry, baseline mass. Next, the samples are exposed to an increasing relative humidity raised by a step of 5% RH from 0% to 90% RH.
structure (smiles),measurement,setting,value
"COc1cnc(C(=O)Nc2c(Cl)c[n+]([O-])cc2Cl)cc1OCC1CC1 [Crystal Form A, 4-(cyclopropylmethoxy)-N-(3,5-dichloro-1-oxidopyridin-4-yl)-5-methoxypyridine-2-carboxamide]",amorphous phase after grinding (XRPD),[1]; 30 seconds of mortar grinding,appearance of amorphous phase was detected
same,polymorphic transition after grinding (XRPD),[1]; 30 seconds of mortar grinding,no observed polymorphic transition
same,particle size reached by jet-milling,[1],~5 μm
same,effect of jet-milling on the crystalline form,[1],without any impact on the crystalline form
same,temperature beyond which thermal decomposition is observed,[2],> 190 °C
same,TGA weight loss,[2]; from room temperature up to 190° C.,no weight loss
same,temperature of transformation into another crystal form,[3]; upon heating,above 100 °C
same,hygroscopicity,[4]; 25° C. isotherm,not hygroscopic
same,water uptake,"[4]; 25° C., up to 90% of relative humidity (RH)",no significant water uptake
"COc1cnc(C(=O)Nc2c(Cl)c[n+]([O-])cc2Cl)cc1OCC1CC1 [Crystal Form B, 4-(cyclopropylmethoxy)-N-(3,5-dichloro-1-oxidopyridin-4-yl)-5-methoxypyridine-2-carboxamide]",temperature beyond which thermal decomposition is observed,[2],> 190 °C
"COc1cnc(C(=O)Nc2c(Cl)c[n+]([O-])cc2Cl)cc1OCC1CC1 [Crystal Form C, 4-(cyclopropylmethoxy)-N-(3,5-dichloro-1-oxidopyridin-4-yl)-5-methoxypyridine-2-carboxamide]",behaviour on storage,[3]; 15 months of storage in ambient conditions,transformed into Crystal Form D and amorphous phase
"COc1cnc(C(=O)Nc2c(Cl)c[n+]([O-])cc2Cl)cc1OCC1CC1 [Crystal Form D, 4-(cyclopropylmethoxy)-N-(3,5-dichloro-1-oxidopyridin-4-yl)-5-methoxypyridine-2-carboxamide]",particle size reached by jet-milling,[1],~5 μm
same,effect of jet-milling on the crystalline form,[1],without any impact on the crystalline form
same,temperature beyond which thermal decomposition is observed,[2],> 205 °C
same,TGA weight loss,[2]; between 20 and 100° C.,0.2%
same,TGA weight loss,[2]; between 100 and 205° C.,no weight loss
same,temperature range in which the form is stable / physically unaltered,[3]; upon heating,up to 110 °C
same,temperature of transformation into another crystal form,[3]; upon heating,110 °C
same,total water gain,"[4]; 25° C., at 90% RH",8.7%
same,total water gain expressed as moles of water,"[4]; 25° C., at 90% RH",2 moles of water
same,"loss of water, last desorption step","[4]; 25° C., between 70% and 0% RH, without hysteresis",1.3%
same,"water desorption, second desorption step","[4]; 25° C., between 75% and 70% RH",6.4%
same,"water uptake, second sorption step","[4]; 25° C., between 85% and 90% RH",6.9%
"COc1cnc(C(=O)Nc2c(Cl)c[n+]([O-])cc2Cl)cc1OCC1CC1 [Crystal Form E, 4-(cyclopropylmethoxy)-N-(3,5-dichloro-1-oxidopyridin-4-yl)-5-methoxypyridine-2-carboxamide]",TGA weight loss,[2]; between 100 and 170° C.,0.8%
same,TGA weight loss,[2]; from room temperature to 100° C.,no weight loss
same,stability under room conditions,[3]; room conditions,stable under room conditions
same,temperature of transformation into another crystal form,[3]; upon heating,140 °C
"COc1cnc(C(=O)Nc2c(Cl)c[n+]([O-])cc2Cl)cc1OCC1CC1 [Crystal Form G, 4-(cyclopropylmethoxy)-N-(3,5-dichloro-1-oxidopyridin-4-yl)-5-methoxypyridine-2-carboxamide]",temperature of transformation into another crystal form,[3]; upon heating,70 °C
"COc1cnc(C(=O)Nc2c(Cl)c[n+]([O-])cc2Cl)cc1OCC1CC1 [Crystal Form H, 4-(cyclopropylmethoxy)-N-(3,5-dichloro-1-oxidopyridin-4-yl)-5-methoxypyridine-2-carboxamide]",desolvation behaviour,[3],desolvates easily into Crystal Form D
"COc1cnc(C(=O)Nc2c(Cl)c[n+]([O-])cc2Cl)cc1OCC1CC1 [Crystal Form I, 4-(cyclopropylmethoxy)-N-(3,5-dichloro-1-oxidopyridin-4-yl)-5-methoxypyridine-2-carboxamide]",desolvation behaviour,[3],desolvates easily into form D
